The structures appear in SMILES notation.

The target in one data set is HIV-1 92UG037.8 Env (Human immunodeficiency virus type 1, UniProt Q70200). The class given is cell-based.
In data set [1] the test system is Envs from HIV-1 primary isolates of clade A, B, C and AG. The class given is cell-based.
In a further data set the test system is 2F5 Fab. The class given is binding.
The test system of a further data set is SIVmac251.30 Env. The class given is cell-based, SIV.
For another data set, the system named is HIV-1 Env pseudoviruses. The class given is cell-based.

As to `Cc1cc(N)c2ccccc2n1` [4-aminoquinaldine], the “inhibition activity/potency in the HIV-1 Env cell-cell fusion assay (in words)” value at HIV-1 92UG037.8 Env is given as “no activity”.

Take `Cc1cc(N)c2ccccc2[n+]1CCCCCCCCCC[n+]1c(C)cc(N)c2ccccc21` [dequalinium, quinolinium,1,1’-(1,10-decanediyl)-bis(4-amino-2-methyldiiodide)]: the “inhibition of cell-cell fusion mediated by Envs of multiple primary HIV-1 isolates” value in data set [1] is “specifically inhibited”. The “cytotoxicity in TZM.bl cells” value in the data set with TZM.bl cells is on record as “more cytotoxicity than in the cell-cell fusion assay”. In addition, the “binding to 2F5 Fab by SPR (in words)” value in the data set on 2F5 Fab is given as “no binding”. Moreover, the “cytotoxicity by an assay measuring ATP concentration” value in the data set with 293T cells is recorded as “minimal level of cytotoxicity”. Besides, in the data set with SIVmac251.30 Env, the “inhibition of cell-cell fusion mediated by SIV Env, high expression level” value is “resistant” and the “inhibition of cell-cell fusion mediated by SIV Env, low expression level” value is recorded as “inhibited”. The “inhibition of HIV-1 infectivity versus MuLV negative control” value in the data set with HIV-1 Env pseudoviruses was “much greater inhibition”.

The values are drawn from PMC7723321 (Nature chemical biology, 2020).
